# Like-named read-outs stand apart in the source and are kept apart here.
# Assays:
# BaF3 PIM1 cells = BaF3 PIM1 cells (Homo sapiens, UniProt P11309); assay: BaF3 PIM1 cell proliferation (Cell Titer Glo); type: cell-based
# EOL-1 = EOL-1 cell assay; type: cell-based; conditions: Homo sapiens, EOL1; Table 3
# [1] = tested on: multiple myeloma cell line MM.1S; assay: MM.1S 3 day proliferation assay, single agents and combinations (Cell-Titer Glo); type: cell-based; conditions: FIG. 1
# Method: The in vitro potency of the combinations of formula I compounds with chemotherapeutic agents was measured by the cell proliferation assay of Example 11 and the results are compiled in Example iii. The CellTiter-Glo® Luminescent Cell Viability Assay (commercially available from Promega Corp., Madison, Wis.) is a homogeneous assay method based on the recombinant expression of Coleoptera luciferase (U.S. Pat. No. 5,583,024; U.S. Pat. No. 5,674,713; U.S. Pat. No. 5,700,670) and determines the number of viable cells in culture based on quantitation of the ATP present, an indicator of metabolically active cells (Crouch et al (1993) J. Immunol. Meth. 160:81-88; U.S. Pat. No. 6,602,677). The CellTiter-Glo® Assay was conducted in 96 or 384 well format, making it amenable to automated high-throughput screening (HTS) (Cree et al (1995) AntiCancer Drugs 6:398-404). The homogeneous assay procedure involves adding the single reagent (CellTiter-Glo® Reagent) directly to cells cultured in serum-supplemented medium. Cell washing, removal of medium and multiple pipetting steps are not required. The system detects as few as 15 cells/well in a 384-well format in 10 minutes after adding reagent and mixing.
# The homogeneous “add-mix-measure” format results in cell lysis and generation of a luminescent signal proportional to the amount of ATP present. […] Viable cells are reflected in relative luminescence units (RLU). […] Data can be recorded by luminometer or CCD camera imaging device. The luminescence output is presented as relative light units (RLU), measured over time.
# The combination index (CI) score is calculated by the Chou and Talalay method (Chou, T. and Talalay, P. (1984) Adv. Enzyme Regul. 22:27-55). […] The strength of synergy is assessed according to Chou and Talalay. […]
# The in vitro cell survival and proliferation assay (Cell-Titer Glo, Promega) measured viable cells over varying inhibitor concentrations (10^−3 to 10 μMolar, Relative Units, wherein a Relative Unit equals 0.3 micromolar for Compound 3, 0.3 micromolar for Formula A, and 0.1 micromolar for Formula B). […]
# [2] = tested on: bone marrow aspirate samples from multiple myeloma patients; assay: Primary cancer cell isolates from bone marrow aspirates, apoptosis; type: cell-based, human; conditions: 0.3 or 1.0 micromolar; two of four cases
# Method: Shown in FIG. 2 are a summary of Combination Index values for Compound 3 in combination with different agents. The values shown were calculated at the ED50 of the dose response curves which were similar in nature to those exemplified in FIG. 1. Each dot in the plot represents the test results obtained with a different multiple myeloma cell line with a different combination of test agents, including Compound 3 plus a second agent as labeled on the abscissa. The horizontal line on the plot itself indicates the mean of all CI values for a given test agent. Combinations of Compound 3 with clinical standard of care chemotherapeutic agents including dexamethasone, lenalidomide, bortezomib, and melphalan produced variable results wherein CI values between about 0.1 and about 1 were obtained, with means generally greater than about 0.5. Compared to these clinically active agents, unexpectedly uniform and unexpectedly potent combination test results were obtained for Compound 3 in combination with Formula A, in which the majority of calculated CI values were less than about 0.2 and the mean across all cancer cell lines tested was about 0.2. In addition to these findings, bone marrow aspirate samples from multiple myeloma patients […] to test Formula A and Compound 3 singly and in combination on these primary cancer cell isolates.
# [3] = tested on: prostate cancer cell line PC3; assay: Cell Titer Glo proliferation and survival assay, PC3; type: cell-based; conditions: PC3, FIG. 5
# Source text: The results obtained here are representative of a subset of prostate cell lines tested.
# Chain of BaF3 PIM1 cells (P11309 whole entry, change not shown): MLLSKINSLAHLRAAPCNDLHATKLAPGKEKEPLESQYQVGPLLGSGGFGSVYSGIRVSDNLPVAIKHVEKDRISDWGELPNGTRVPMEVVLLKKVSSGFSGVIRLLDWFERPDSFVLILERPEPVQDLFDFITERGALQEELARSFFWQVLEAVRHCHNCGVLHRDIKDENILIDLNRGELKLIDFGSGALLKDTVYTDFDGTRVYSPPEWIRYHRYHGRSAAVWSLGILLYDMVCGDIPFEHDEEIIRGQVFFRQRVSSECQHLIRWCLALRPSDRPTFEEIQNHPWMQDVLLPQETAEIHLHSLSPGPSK
smiles,measurement,setting,value
"Nc1sc(-c2c(F)cccc2F)nc1C(=O)Nc1cnccc1N1CCC[C@H](N)C1 [Example 3, (S)-5-amino-N-(4-(3-aminopiperidin-1-yl)pyridin-3-yl)-2-(2,6-difluorophenyl)thiazole-4-carboxamide]",GI50,"BaF3 PIM1 cells; Table 3, read-out: BaF3-Pim1",10 nM
same,GI50,"BaF3 PIM1 cells; incubated overnight, read-out: Prolif BaF3_PIM1 (IC50)",13.5 nM
same,IC50,EOL-1,10 nM
same,"lowest level reached by dose-response curve, of control value",[1],does not fully reach 0% of the control value
same,activity on primary cancer cell isolates,[2],only limited single agent activity
same,"single agent activity, PC3",[3],little activity

# — patent US8435976B2, “4-substituted pyridin-3-yl-carboxamide compounds and methods of use” (F. Hoffmann-La Roche, priority 2009, dated 2013)
